For data set [1], the system named is green peach aphid (Myzus persicae). Description: Myzus test (MYZUPE spray treatment), Use Example 4. Format: in vivo. The following applies: 144 h, 100 g/ha, after 6 days, read-out: activity in %. In short, it runs like this:
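Compound was formulated in acetone/dimethylformamide with alkylaryl polyglycol ether emulsifier and diluted in emulsifier-containing water. It was sprayed onto Chinese cabbage leaf discs infested with all stages of Myzus persicae. Mortality (%) was scored after 6 days, where 100% means all aphids killed.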

In data set [2] the test system is larvae of the mustard beetle (Phaedon cochleariae). Description: Phaedon test (PHAECO spray treatment). It is filed as in vivo. Particulars: 168 h, 100 g/ha, after 7 days, read-out: activity in %. In a few lines:
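Mortality of mustard beetle larvae, expressed as percent killed (100% all, 0% none), assessed 7 days after spraying. Spray liquor made from compound in acetone plus dimethylformamide with alkylaryl polyglycol ether, diluted in emulsifier-containing water to the desired concentration.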

Data set [3] relates to caterpillars of the armyworm (Spodoptera frugiperda). The data set can be described thus: Spodoptera frugiperda test (SPODFR spray treatment). The following applies: 168 h, 100 g/ha, after 7 days, read-out: activity in %. It is filed as in vivo. In short, it runs like this: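 Percent caterpillar mortality read 7 days after infestation (0% none killed, 100% all killed). Treatment was a spray of the acetone/DMF/emulsifier formulation, water-diluted to test concentration, onto Zea mays leaf discs, allowed to dry before larvae were added.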

A short description of data set [4]: log P determination by HPLC on reversed-phase columns (EEC Directive 79/831 Annex V.A8). Particulars: pH 2.7. Format: physicochemical. In short, it runs like this: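 Calibration used unbranched alkan-2-ones of 3 to 16 carbons with known log P, values interpolated linearly from retention times between neighbouring standards. Acidic-range LC-MS run at pH 2.7, eluents aqueous and acetonitrile formic acid 0.1%, linear gradient 10% to 95% acetonitrile.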

In general, chromatographic logP refers to lipophilicity estimated from chromatographic retention. `CCNC(=O)c1cc(Cl)cc(C)c1NC(=O)c1cc(Cn2cc(C(F)(F)C(F)(F)F)nn2)nn1-c1ncccc1Cl` [Example 302]: the results for the pest or weed control at 100 g/ha in data set [1], in data set [2] and in data set [3] were 80%, 100% and 100%, respectively. Also, the chromatographic logP in data set [4] turned out to be 3.26.

As for `Cc1cc(Cl)cc(C(=O)NC(C)C)c1NC(=O)c1cc(Cn2cc(C(F)(F)C(F)(F)F)nn2)nn1-c1ncccc1Cl` [Example 303], the pest or weed control at 100 g/ha in data set [1], in data set [2] and in data set [3] was 100% throughout. The compound further yielded a chromatographic logP in data set [4] of 3.5.

In the case of `Cc1cc(Cl)cc(C(=O)NC(C)(C)C)c1NC(=O)c1cc(Cn2cc(C(F)(F)C(F)(F)F)nn2)nn1-c1ncccc1Cl` [Example 304], the pest or weed control at 100 g/ha in data set [1], in data set [2] and in data set [3] was 100% throughout. In addition, in data set [4], the chromatographic logP is 3.85.

For the compound `Cc1cc(Cl)cc(C(=O)NCC2CC2)c1NC(=O)c1cc(Cn2cc(C(F)(F)C(F)(F)F)nn2)nn1-c1ncccc1Cl` [Example 305], the pest or weed control at 100 g/ha in data set [1], in data set [2] and in data set [3] was 100% each time. The chromatographic logP in data set [4] was 3.55.

Regarding `Cc1cc(Cl)cc(C(N)=O)c1NC(=O)c1cc(Cn2cc(C(F)(F)C(F)(F)F)nn2)nn1-c1ncccc1Cl` [Example 306], the pest or weed control at 100 g/ha in data set [1], in data set [2] and in data set [3] was 100% in each case. The same compound had a chromatographic logP in data set [4] of 2.78.

In the case of `CSC[C@H](C)NC(=O)c1cc(Cl)cc(C)c1NC(=O)c1cc(Cn2cc(C(F)(F)C(F)(F)F)nn2)nn1-c1ncccc1Cl` [Example 307], the pest or weed control at 100 g/ha in data set [1], in data set [2] and in data set [3] was 100% throughout. Also, the chromatographic logP in data set [4] was 3.66.

`CNC(=O)c1cc(I)cc(C)c1NC(=O)c1cc(Cn2cc(C(F)(F)C(F)(F)F)nn2)nn1-c1ncccc1Cl` [Example 308]: the pest or weed control at 100 g/ha in data set [1], in data set [2] and in data set [3] was 100% each time. The same compound had a chromatographic logP in data set [4] of 3.23.

As to `Cc1cc(I)cc(C(=O)NC(C)C2CC2)c1NC(=O)c1cc(Cn2cc(C(F)(F)C(F)(F)F)nn2)nn1-c1ncccc1Cl` (stereo not drawn) [Example 309], the pest or weed control at 100 g/ha in data set [1] amounted to 80%; in data set [2] it was 100%; in data set [3], 100%. Also, the chromatographic logP in data set [4] amounted to 4.03.

As for `Cc1cc(I)cc(C(=O)NC(C)C)c1NC(=O)c1cc(Cn2cc(C(F)(F)C(F)(F)F)nn2)nn1-c1ncccc1Cl` [Example 312], the pest or weed control at 100 g/ha in data set [1] was found to be 80%; in data set [2], 100%; in data set [3] it was 100%. The chromatographic logP in data set [4] was found to be 3.73.

In the case of `Cc1cc(I)cc(C(=O)NC(C)(C)C)c1NC(=O)c1cc(Cn2cc(C(F)(F)C(F)(F)F)nn2)nn1-c1ncccc1Cl` [Example 313], the pest or weed control at 100 g/ha in data set [1], in data set [2] and in data set [3] was 100% each time. Moreover, the chromatographic logP in data set [4] is 4.09.

Regarding `Cc1cc(I)cc(C(=O)NCC2CC2)c1NC(=O)c1cc(Cn2cc(C(F)(F)C(F)(F)F)nn2)nn1-c1ncccc1Cl` [Example 314], the values for the pest or weed control at 100 g/ha in data set [1], in data set [2] and in data set [3] were 80%, 100% and 100%, respectively. The compound also showed a chromatographic logP in data set [4] of 3.8.

For the compound `Cc1cc(I)cc(C(N)=O)c1NC(=O)c1cc(Cn2cc(C(F)(F)C(F)(F)F)nn2)nn1-c1ncccc1Cl` [Example 315], the figures for the pest or weed control at 100 g/ha in data set [1], in data set [2] and in data set [3] were 90%, 100% and 100%, respectively. Further, the chromatographic logP in data set [4] stood at 2.98.

The values above are taken from patent US8536202B2, “Triazole-substituted anthranilamides as pesticides” (Bayer Cropscience AG, priority 2010, dated 2013).
